“Also recorded” adds a separate entry of the source. Numbered stars: 1 amine (or outer) side, 2 acyl side, 3 side chain; on linkers, the order of the positions; unused ones are H or OH. Bridge positions count the residues as written; N and C are the ends. Square brackets hold non-standard residues; d marks the D form. Ends that are not written are not given here. Peptide text beside a SMILES is read from it. X1 = CC(=O)NC(C(=O)OC(C(C)C)C(N[*:1])C(=O)[*:2])C(O)C(C)C; rhodamine red = Rhodamine red fluorescent dye; PhLac = O=C(O)[CH](O)Cc1ccccc1; NMeT = CN[CH](C(=O)O)[CH](C)O; NMeA = CN[CH](C)C(=O)O; NMeDha = C=C(NC)C(=O)O
Key:
BNGR-A21 (BmCrzR) [1] = assay type: cell-based, Bombyx mori
[2] = molecular target: Bombyx neuropeptide G protein-coupled receptor A21 (BNGR-A21), N-terminal FLAG tag (Bombyx mori) (UniProt B3XXN4)
Sequence of Bombyx neuropeptide G protein-coupled receptor A21 (BNGR-A21), N-terminal FLAG tag (Bombyx mori) (B3XXN4 entry or part of it): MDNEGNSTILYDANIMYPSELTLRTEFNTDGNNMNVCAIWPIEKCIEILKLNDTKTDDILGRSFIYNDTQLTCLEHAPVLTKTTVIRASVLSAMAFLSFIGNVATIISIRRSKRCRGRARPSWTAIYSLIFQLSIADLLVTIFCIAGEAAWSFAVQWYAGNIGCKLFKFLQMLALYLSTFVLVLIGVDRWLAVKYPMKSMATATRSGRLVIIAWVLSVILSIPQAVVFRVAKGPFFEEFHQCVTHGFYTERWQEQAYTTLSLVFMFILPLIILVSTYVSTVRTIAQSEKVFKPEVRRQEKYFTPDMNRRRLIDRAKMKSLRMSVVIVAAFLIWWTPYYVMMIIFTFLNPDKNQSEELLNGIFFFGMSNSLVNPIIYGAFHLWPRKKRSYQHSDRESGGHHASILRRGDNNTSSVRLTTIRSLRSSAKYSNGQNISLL

[3] = molecular target: Bombyx neuropeptide G protein-coupled receptor A21 (BNGR-A21), N-terminal FLAG tag (Bombyx mori) (UniProt B3XXN4); remark: listed apart in the source
[4] = molecular target: Bombyx neuropeptide G protein-coupled receptor A21 (BNGR-A21), N-terminal FLAG tag (Bombyx mori) (UniProt B3XXN4); experiment: fluorescent ligand competition binding on whole cells; HEK293 cells stably expressing FLAG-A21 in poly-D-lysine-coated 96-well plates; labeled ligand (Rho-[Lys^4]BmCrz) with buffer or unlabeled ligand in PBS with 0.2% BSA, room temperature 90 min, washed with ice-cold PBS with 0.1% BSA; fluorescence intensity as percentage of total binding
[5] = molecular target: Bombyx neuropeptide G protein-coupled receptor A21 (BNGR-A21), N-terminal FLAG tag (Bombyx mori) (UniProt B3XXN4); remark: listed apart in the source
BNGR-A21 (BmCrzR) [6] = experiment: intracellular calcium measurement (fura-2) in HEK293 cells; assay type: cell-based, Bombyx mori; conditions: pretreatment with YM-254890 1 μM, U73122 10 μM, EGTA 5 mM, BAPTA-AM 50 μM or nifedipine 10 μM, corazonin (1 μM with YM-254890)
Procedure: (§1) The stable FLAG-A21- and BmFlag-A21-expressing HEK293 and Sf21 cells were washed twice with phosphate-buffered saline and resuspended at 5 × 10^6 cells/ml in Hanks' balanced salt solution. The cells were detached by a Nonenzymatic Cell Dissociation Solution (M&C Gene Technology, China) or 0.02% EGTA and then loaded with 3 μM Fura 2-AM (Dojindo Laboratories, Japan) for 30 min at 37 °C. Cells were washed twice in Hanks' solution and then resuspended in Hanks' solution at a concentration of 3 × 10^7 cells/ml. Calcium flux was measured using excitation wavelengths of 340 and 380 nm in a fluorescence spectrometer (Tecan Infinite 200 PRO, Switzerland).
(§2) FIGURE 4. Intracellular Ca^2+ influx. HEK293 (A) and Sf21 (B) cells, respectively, transfected with FLAG-A21 and BmFlag-A21 were measured in response to different concentrations of corazonin peptide using the fluorescent Ca^2+ indicator fura-2. C, effect of pretreatment of the Gq inhibitor on corazonin (1 μM)-mediated Ca^2+ influx in HEK293 cells. D, effects of pretreatment of calcium chelators (EGTA, 5 mM, and BAPTA-AM, 50 μM) and L-calcium channel (nefidipine, 10 μM) inhibitors on corazonin-mediated Ca^2+ influx in HEK293 cells. Effect of pretreatment of PLC inhibitor (U73122, 10 μM) on corazonin-mediated Ca^2+ influx in HEK293 (E) and Sf21 (F) cells. The figures are representative of more than three independent experiments.

BmCrzR (BNGR-A21) [7] = experiment: ERK1/2 activation assay in HEK293 cells stably expressing BmCrzR; assay type: cell-based, Bombyx mori; conditions: HEK293 cells stably transfected with BmCrzR; 1 h pretreatment (H89 10 μM, Go6983 10 μM, U0126 1 μM), then corazonin 1 nM, 5 min
BmCrzR (BNGR-A21) [8] = experiment: CRE-driven luciferase assay of rhodamine-labeled corazonin; assay type: cell-based, Bombyx mori; conditions: Fig. 5A; CRE-driven luciferase system; rhodamine red-labeled peptide; read-out: activation of BmCrzR (CRE-driven luciferase), EC50
Procedure: After seeding in a 48-well plate overnight, HEK293 or Sf21 cells transiently or stably cotransfected with BNGR-A21 and pCRE-Luc were grown to 90–95% confluence, stimulated with the corazonin peptides in DMEM without FBS, and incubated for 4–6 h at 37 °C. Luciferase activity was detected by a firefly luciferase assay kit (KenReal, Shanghai, China). The cAMP concentration was assessed using a commercially available cAMP detection kit (R&D Systems).
All results are expressed as the mean ± S.E. Data were analyzed using nonlinear curve fitting (GraphPad Prism version 5.0) to obtain EC50 values. Statistical significance was determined using Student's t test. Probability values that were less than or equal to 0.05 were considered significant.
FIGURE 5. Direct interaction of BNGR-A21 with corazonin. A, rhodamine red-labeled [Lys^4]corazonin activity was assayed using the CRE-driven luciferase system. B, binding of Rho-[Lys^4]BmCrz to BNGR-A21 expressed in HEK293 cells was measured in the presence of different concentrations of unlabeled peptides or in the absence of unlabeled peptides (total binding). The extent of binding was determined by fluorescence intensity and is presented as a percentage of the total binding. The results represent the mean ± S.D. (n = 3).

BNGR-A21 (BmCrzR) [9] = experiment: intracellular calcium measurement (fura-2) in Sf21 cells; assay type: cell-based, Bombyx mori; conditions: pretreatment with U73122 10 μM
Procedure: as §1, §2

CrzR in A. gambiae = test system: CrzR in A. gambiae; design: method as in PMID 16616003; conditions: cited from earlier work

cholera toxin [CTX]
effect of stimulation with CTX on cellular levels of cAMP (BNGR-A21 (BmCrzR) [1]): remarkable increase in the cellular levels of cAMP

Bombyx mori corazonin ([Arg^7]corazonin) (peptide)
ERK1/2 phosphorylation (Western blot), dose response to corazonin, HEK293 cells stably expressing BmCrzR; EC50 [2]: 1.4 nM | ERK1/2 phosphorylation (Western blot), dose response to corazonin, Sf21 cells expressing BmCrzR; EC50 [2]: 4.7 nM | CRE-driven luciferase reporter (cAMP accumulation), dose response to corazonin, HEK293 cells co-transfected with FLAG-A21/CRE-Luc; EC50 [3]: 4.5 nM | CRE-driven luciferase reporter (cAMP accumulation), dose response to corazonin, Sf21 cells co-transfected with FLAG-A21/CRE-Luc; EC50 [3]: 1 nM | IC50 [4]: 0.49 nM

pertussis toxin [PTX]
effect of pretreatment on corazonin-stimulated cAMP generation (BNGR-A21 (BmCrzR) [1]): no effect on cAMP generation; also recorded: PTX-insensitive

Rhodamine red-labeled [Lys^4]BmCrz (peptide)
CRE-driven luciferase reporter; EC50 [5]: 86.1 nM

C=C1C(=O)NC(C)C(=O)N(C)C(C)C(=O)NC(C(OC(=O)C(NC(C)=O)C(O)C(C)C)C(C)C)C(=O)N(C)C(C(C)OC)C(=O)OC(C)C(NC(C)=O)C(=O)OC(Cc2ccccc2)C(=O)N1C (centres unmarked) [YM-254890] (Ac-T[PhLac][NMeDha]A[NMeA][X1][NMeT](Me); ester 1-C; configuration not given here)
inhibition of BmCrz-induced luciferase activity (BNGR-A21 (BmCrzR) [1]): significantly inhibited; also recorded: sensitive | effect of inhibitor on corazonin-mediated Ca^2+ mobilization (BNGR-A21 (BmCrzR) [6]): significant decrease in the intracellular Ca^2+ mobilization; also recorded: significantly blocked

CC(=O)OCOC(=O)CN(CC(=O)OCOC(C)=O)c1ccccc1OCCOc1ccccc1N(CC(=O)OCOC(C)=O)CC(=O)OCOC(C)=O [BAPTA-AM]
inhibition of BmCrz-induced luciferase activity (BNGR-A21 (BmCrzR) [1]): significantly inhibited | effect of inhibitor on corazonin-mediated Ca^2+ mobilization (BNGR-A21 (BmCrzR) [6]): sensitive; also recorded: partially impaired

N#CC(=C(/N)Sc1ccccc1N)/C(C#N)=C(/N)Sc1ccccc1N [U0126]
block of BmCrzR-mediated activation of ERK1/2 (BmCrzR (BNGR-A21) [7]): significantly blocked; also recorded: significantly inhibited

Rho-[Lys^4]BmCrz: Q4K peptide conjugated with rhodamine red at the Lys residue (QTFK(rhodamine red)YSRGWTN; ends and bridges not checked; UniProt Q86N75 20-30, looked up, variant Q4K)
EC50 (BmCrzR (BNGR-A21) [8]): 86.1 nM

O=C(O)CN(CCOCCOCCN(CC(=O)O)CC(=O)O)CC(=O)O [EGTA]
inhibition of BmCrz-induced luciferase activity (BNGR-A21 (BmCrzR) [1]): significantly inhibited | effect of inhibitor on corazonin-mediated Ca^2+ mobilization (BNGR-A21 (BmCrzR) [6]): sensitive; also recorded: partially impaired

COc1ccc2c(c1)c(C1=C(c3c[nH]c4ccccc34)C(=O)NC1=O)cn2CCCN(C)C [Go6983]
block of BmCrzR-mediated activation of ERK1/2 (BmCrzR (BNGR-A21) [7]): significantly blocked; also recorded: significantly inhibited | inhibition of BmCrz-induced luciferase activity (BNGR-A21 (BmCrzR) [1]): significantly inhibited

O=S(=O)(NCCNC/C=C/c1ccc(Br)cc1)c1cccc2cnccc12 [H89]
block of BmCrzR-mediated activation of ERK1/2 (BmCrzR (BNGR-A21) [7]): significantly blocked; also recorded: significantly inhibited | inhibition of BmCrz-induced luciferase activity (BNGR-A21 (BmCrzR) [1]): significantly inhibited; also recorded: sensitive

COC(=O)C1=C(C)NC(C)=C(C(=O)OC)C1c1ccccc1[N+](=O)[O-] [nifedipine]
effect of inhibitor on corazonin-mediated Ca^2+ mobilization (BNGR-A21 (BmCrzR) [6]): sensitive; also recorded: partially impaired

COc1ccc2c(c1)CC[C@@H]1[C@@H]2CC[C@]2(C)[C@@H](NCCCCCCN3C(=O)C=CC3=O)CC[C@@H]12 [U73122]
effect of inhibitor on corazonin-mediated Ca^2+ mobilization (BNGR-A21 (BmCrzR) [9]): sensitive | inhibition of BmCrz-induced luciferase activity (BNGR-A21 (BmCrzR) [1]): significantly inhibited | effect of inhibitor on corazonin-mediated Ca^2+ mobilization (BNGR-A21 (BmCrzR) [6]): sensitive; also recorded: significantly blocked

endogenous corazonin: endogenous corazonin of A. gambiae (ref 22) (QTFQYSRGWTN; ends and bridges not checked; UniProt A0NDK8 21-31, looked up)
selectivity of A. gambiae CrzR activation (CrzR in A. gambiae): only be activated by its endogenous corazonin | EC50 (CrzR in A. gambiae; read-out: activation of A. gambiae CrzR (cAMP accumulation), EC50): 4 nM
